Data on 21 compounds can be found in ChEMBL document CHEMBL3286136, “Discovery of camphor-derived pyrazolones as 11β-hydroxysteroid dehydrogenase type 1 inhibitors” (Bioorg Med Chem Lett, 2014).

As usually defined, the pIC50 is the negative decadic logarithm of the IC50, by convention in mol/L. What is called clearance is a measure of how efficiently the substance is removed, as volume per time. As usually defined, the half-life is how long it takes for the measured level to halve. Read a high half-life as slow decline. As usually defined, the Cmax is the highest concentration seen after dosing. The Tmax is the time at which the peak concentration occurs. By IC20 is commonly meant the concentration at which the effect reaches the 20% level.

pIC50: −log10 of the molar value. ≈ marks a conversion by molar mass, not a printed value. A value given as a limit tells only on which side of the number the result lay.

Series [1] can be described thus: Kinetic aqueous solubility of the compound at pH 6.5. It is filed as physicochemical. As to conditions: read-out: Kinetic_solubility.
Series [2] is described as follows: Effective permeability of the compound at pH 6.5 by PAMPA. It is filed as physicochemical. The conditions noted are these: read-out: Peff. (In PAMPA a lipid-coated filter parts donor from acceptor wells.)
Series [3] in a line: Clearance in human liver microsomes at 1 uM. It is filed as ADME. The conditions noted are these: read-out: CLH. A general note: Microsomes from liver hold many membrane-bound enzymes, among them those of drug oxidation.
The target of another series is Cytochrome P450 3A4 (Homo sapiens, UniProt P08684). Description: Inhibition of CYP3A4 (unknown origin). It is filed as ADME.
Chain of Cytochrome P450 3A4 (P08684 whole entry): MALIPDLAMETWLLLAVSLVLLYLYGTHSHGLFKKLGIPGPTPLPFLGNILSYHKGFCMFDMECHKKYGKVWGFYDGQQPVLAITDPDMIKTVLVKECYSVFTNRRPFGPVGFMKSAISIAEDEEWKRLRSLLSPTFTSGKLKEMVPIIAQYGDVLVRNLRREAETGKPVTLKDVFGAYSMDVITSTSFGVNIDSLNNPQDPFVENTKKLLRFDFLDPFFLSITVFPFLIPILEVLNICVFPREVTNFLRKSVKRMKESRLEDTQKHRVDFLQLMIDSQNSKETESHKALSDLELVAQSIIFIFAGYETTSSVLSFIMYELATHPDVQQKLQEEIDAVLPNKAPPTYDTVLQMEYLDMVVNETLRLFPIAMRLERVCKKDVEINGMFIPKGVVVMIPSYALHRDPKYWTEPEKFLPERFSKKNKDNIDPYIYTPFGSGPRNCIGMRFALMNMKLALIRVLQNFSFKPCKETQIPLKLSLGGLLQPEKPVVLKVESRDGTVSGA
The nature of series [4]: Clearance in iv dosed rat. It is filed as ADME, organism-based. The conditions noted are these: in vivo.
A short description of series [5]: Half life in iv dosed rat. The conditions noted are these: in vivo. It is filed as ADME, organism-based.
Series [6] in a line: Volume of distribution at steady state in iv dosed rat. As to conditions: in vivo, read-out: Vdss. It is filed as ADME, organism-based.
The nature of series [7]: Cmax in rat at 20 mg/kg, po. It is filed as ADME, organism-based. Details: dose 20 mg/kg, route oral. As to conditions: in vivo.
Series [8] is described as follows: Tmax in po dosed rat. It is filed as ADME, organism-based. The conditions noted are these: in vivo.
Series [9] can be described thus: Oral bioavailability in rat. The conditions noted are these: in vivo. Type of series: ADME, organism-based.
For series [10], the target named is 11-beta-hydroxysteroid dehydrogenase 1 (Rattus norvegicus, UniProt P16232). Put plainly: Inhibition of rat 11betaHSD1 assessed as reduction of cortisone to cortisol by ELISA.
Chain of 11-beta-hydroxysteroid dehydrogenase 1 (Rattus norvegicus, UniProt P16232) (P16232 whole entry): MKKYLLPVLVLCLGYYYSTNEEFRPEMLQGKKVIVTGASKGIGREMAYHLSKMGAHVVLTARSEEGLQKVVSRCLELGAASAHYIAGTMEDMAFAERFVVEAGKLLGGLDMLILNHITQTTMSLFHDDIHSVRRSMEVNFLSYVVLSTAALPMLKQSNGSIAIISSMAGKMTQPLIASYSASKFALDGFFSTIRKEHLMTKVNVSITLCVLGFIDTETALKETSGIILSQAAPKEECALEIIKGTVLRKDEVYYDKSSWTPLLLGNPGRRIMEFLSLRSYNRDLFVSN
The target of series [11] is 11-beta-hydroxysteroid dehydrogenase 1 (Homo sapiens, UniProt P28845). Description: Inhibition of full-length human 11betaHSD1 expressed in HEK293 cells assessed as cortisol level by competitive ELISA. Type of series: cell-based. (In general: An ELISA detects its analyte on a solid surface through an enzyme-linked reagent.)
Chain of 11-beta-hydroxysteroid dehydrogenase 1 (Homo sapiens, UniProt P28845) (P28845 whole entry): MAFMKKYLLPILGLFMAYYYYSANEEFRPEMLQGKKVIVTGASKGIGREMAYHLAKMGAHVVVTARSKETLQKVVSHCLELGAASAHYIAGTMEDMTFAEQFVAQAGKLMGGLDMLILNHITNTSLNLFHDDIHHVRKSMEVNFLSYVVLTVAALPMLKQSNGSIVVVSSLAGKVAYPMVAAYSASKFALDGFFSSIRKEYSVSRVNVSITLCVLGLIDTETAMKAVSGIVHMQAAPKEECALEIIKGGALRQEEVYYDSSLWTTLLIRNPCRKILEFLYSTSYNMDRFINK
The target in a further series is hERG (KCNH2) (Homo sapiens, UniProt Q12809). Put plainly: Inhibition of human ERG.
Chain of hERG (KCNH2) (Q12809 whole entry): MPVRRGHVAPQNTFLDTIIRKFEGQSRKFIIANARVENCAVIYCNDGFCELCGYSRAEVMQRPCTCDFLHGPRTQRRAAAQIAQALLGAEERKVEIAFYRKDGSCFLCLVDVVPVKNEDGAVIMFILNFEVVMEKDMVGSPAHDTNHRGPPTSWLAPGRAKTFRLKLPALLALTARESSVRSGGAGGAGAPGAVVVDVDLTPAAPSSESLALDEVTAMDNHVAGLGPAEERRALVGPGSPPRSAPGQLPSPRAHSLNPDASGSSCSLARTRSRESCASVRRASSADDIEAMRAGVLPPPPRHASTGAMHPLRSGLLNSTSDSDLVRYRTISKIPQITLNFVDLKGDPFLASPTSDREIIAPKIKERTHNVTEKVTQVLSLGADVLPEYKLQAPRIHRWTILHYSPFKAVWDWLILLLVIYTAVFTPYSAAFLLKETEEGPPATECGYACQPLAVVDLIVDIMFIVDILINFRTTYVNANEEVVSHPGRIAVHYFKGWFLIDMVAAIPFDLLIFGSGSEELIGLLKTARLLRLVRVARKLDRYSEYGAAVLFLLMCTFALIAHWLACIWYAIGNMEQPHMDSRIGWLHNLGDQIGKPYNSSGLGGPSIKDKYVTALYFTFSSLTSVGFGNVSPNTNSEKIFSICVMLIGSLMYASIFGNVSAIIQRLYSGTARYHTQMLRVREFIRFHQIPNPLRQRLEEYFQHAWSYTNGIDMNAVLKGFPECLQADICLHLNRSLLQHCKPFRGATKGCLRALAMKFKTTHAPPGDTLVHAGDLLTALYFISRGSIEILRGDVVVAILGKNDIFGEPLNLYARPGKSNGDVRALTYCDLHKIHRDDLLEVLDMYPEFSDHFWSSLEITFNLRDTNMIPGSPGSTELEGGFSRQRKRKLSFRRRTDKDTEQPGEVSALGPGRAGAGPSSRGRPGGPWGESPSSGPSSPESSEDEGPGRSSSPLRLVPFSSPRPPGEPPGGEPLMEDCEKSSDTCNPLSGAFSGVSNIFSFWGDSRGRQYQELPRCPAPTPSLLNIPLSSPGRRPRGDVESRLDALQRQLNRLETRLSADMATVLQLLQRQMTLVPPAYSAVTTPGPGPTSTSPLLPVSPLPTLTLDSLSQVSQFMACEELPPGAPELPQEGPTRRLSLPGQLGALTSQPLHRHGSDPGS
Series [12] is described as follows: Cmax in rat at 50 mg/kg, po. As to conditions: in vivo. It is filed as ADME, organism-based. Set-up: dose 50 mg/kg, route oral.
The subject of series [13] is Mus musculus. Description: Reduction in plasma cortisol level in db/db mouse at 150 mg/kg, po after 30 mins […] measured after 5.5 hrs relative to control. Type of series: functional.
The test system of series [14] is Mus musculus. Put plainly: Toxicity in db/db mouse assessed as sedative effect at 150 mg/kg, po after 13 days. Type of series: organism-based. Details: dose 150 mg/kg, route oral. The conditions noted are these: in vivo, 312 h.

For the compound `Cn1c2c(c(=O)n1-c1ccccc1)[C@H]1CC[C@]2(C)C1(C)C`, the solubility kinetic in series [1] turned out to be 169 µg/mL (≈ 598 µM). For the same compound, the Papp in [2] stood at 9.7 ×10⁻⁶ cm/s. For the same compound, the microsomal CLint at 1 µM in series [3] was 3.6 µL/min/mg. Further, the pIC50 is under 4.30 at Cytochrome P450 3A4 and 6.86 in series [10]. The compound further registered a clearance in series [4] of 25.7 mL/min/kg. Also, the half-life in [5] was 72 min. Besides, in series [6], the Vd came to 1.4 L/kg. The compound further had a Cmax in [7] of 335 ng/mL. The Tmax in series [8] amounted to 30 min. For the same compound, the bioavailability in series [9] was determined as 9%.
Regarding `Cn1c2c(c(=O)n1-c1c(Cl)cccc1Cl)[C@H]1CC[C@]2(C)C1(C)C`, the pIC50 in series [11] is under 4.66; in [10], under 4.96.
Turning to `CC1(C)[C@@H]2CC[C@@]1(C)c1c2c(=O)n(-c2ccccc2F)n1Cc1ccccc1`, the pIC50 in series [10] was 7.92.
Same read-out and setting: under `C=CCn1c2c(c(=O)n1-c1ccccc1F)[C@H]1CC[C@]2(C)C1(C)C` stands 7.46.
With `CC1(C)[C@@H]2CC[C@@]1(C)c1c2c(=O)n(-c2ccc(F)cc2F)n1Cc1ccccc1`, the solubility kinetic in [1] was 82 µg/mL (≈ 208 µM). In series [2], the Papp came out at 11.2 ×10⁻⁶ cm/s. Besides, the microsomal CLint at 1 µM in series [3] was 582 µL/min/mg. This compound also gave an IC20 at hERG (KCNH2) of over 30 µM. In addition, the pIC50 at Cytochrome P450 3A4 is 5.21; in series [10], 7.89. In [4], this compound showed a clearance of 29 mL/min/kg. In [5], this compound had a half-life of 48 min. Besides, the Vd in [6] is 1 L/kg. In series [12], this compound yielded a Cmax of 2280 ng/mL. Moreover, the Tmax in series [8] is 138 min. For the same compound, the bioavailability in series [9] turned out to be 35%. In the series with Mus musculus [13], the “inhibition (INH)” value came to 93%.
In the case of `Cn1c2c(c(=O)n1-c1ccccn1)[C@H]1CC[C@]2(C)C1(C)C`, the negative logarithm of the IC50 (pIC50) in series [10] was under 5.30.
On the same count and under the same terms, the same measure for `Cn1c2c(c(=O)n1-c1ccccc1)[C@@H]1CC[C@@]2(C)C1(C)C`: 6.94; for `CCCn1c2c(c(=O)n1-c1ccccc1F)[C@H]1CC[C@]2(C)C1(C)C`: 6.96.
Turning to `Cn1c2c(c(=O)n1-c1ccccc1Cl)[C@H]1CC[C@]2(C)C1(C)C`, the solubility kinetic in series [1] was over 625 µg/mL. For the same compound, the Papp in series [2] stood at 9.9 ×10⁻⁶ cm/s. In series [3], the microsomal CLint at 1 µM was determined as 197 µL/min/mg. Besides, the IC20 on hERG (KCNH2) was over 30 µM. Besides, the pIC50 against Cytochrome P450 3A4 was under 4.30; in series [10] it was 7.41. This compound also returned a clearance in series [4] of 29.3 mL/min/kg. For the same compound, the half-life in [5] was 294 min. The Vd in series [6] was found to be 2.7 L/kg. In [12], this compound had a Cmax of 2840 ng/mL. Moreover, in series [8], the Tmax stood at 60 min. Moreover, in [9], the bioavailability came to 29%.
Turning to `COc1c2c(nn1-c1ccc(C)cc1)[C@]1(C)CC[C@H]2C1(C)C`, the pIC50 in series [11] is under 4.66; in [10] it was under 4.96.
`Cn1c2c(c(=O)n1-c1cc(Cl)ccc1Cl)[C@H]1CC[C@]2(C)C1(C)C`: in series [1], the solubility kinetic was found to be 50 µg/mL (≈ 142 µM). For the same compound, in series [2], the Papp was 6.7 ×10⁻⁶ cm/s. Further, the microsomal CLint at 1 µM in series [3] was determined as 170 µL/min/mg. Besides, the 20% effect level at hERG (KCNH2) (IC20) was put at 51 µM. Further, the pIC50 at Cytochrome P450 3A4 is under 4.60; in series [10], 8.30. This compound also gave a clearance in series [4] of 40.2 mL/min/kg. The compound further had a half-life in series [5] of 324 min. The Vd in [6] came to 4.6 L/kg. The same compound displayed a Cmax in [12] of 280 ng/mL. Moreover, the Tmax in series [8] came to 30 min. In addition, in [9], the bioavailability amounted to 71%. Further, the “inhibition (INH)” value in the series on Mus musculus [13] was 93%. Also, the Activity entry in the series with Mus musculus [14] was “Non-toxic”.
In the case of `Cn1c2c(c(=O)n1-c1ccccc1C(F)(F)F)[C@H]1CC[C@]2(C)C1(C)C`, the solubility kinetic in series [1] was over 376 µg/mL. Besides, in series [2], the Papp was determined as 10.9 ×10⁻⁶ cm/s. In series [3], the microsomal CLint at 1 µM was determined as 68 µL/min/mg. The IC20 against hERG (KCNH2) is over 30 µM. Moreover, the pIC50 against Cytochrome P450 3A4 was 4.65; in series [10] it was 8.00. Further, the clearance in series [4] came out at 31.8 mL/min/kg. Moreover, the half-life in [5] is 60 min. For the same compound, in series [6], the Vd was determined as 1.2 L/kg. This compound also showed a Cmax in [7] of 2150 ng/mL. In series [8], the Tmax stood at 42 min. For the same compound, the bioavailability in [9] came out at 109%. For the same compound, the “inhibition (INH)” value in the series on Mus musculus [13] was determined as 93%. Besides, the Activity entry with Mus musculus [14] was “Toxic”.
As for `Cn1c2c(c(=O)n1Cc1ccccc1C(F)(F)F)[C@H]1CC[C@]2(C)C1(C)C`, in [1], the solubility kinetic came to 246 µg/mL (≈ 675 µM). For the same compound, the Papp in series [2] is 8.2 ×10⁻⁶ cm/s. Besides, in series [3], the microsomal CLint at 1 µM turned out to be 604 µL/min/mg. Moreover, the pIC50 is 5.32 at Cytochrome P450 3A4 and 8.00 in [10]. In [4], this compound displayed a clearance of 34.8 mL/min/kg. In addition, the half-life in [5] was 180 min. Also, in series [6], the Vd turned out to be 2 L/kg. Moreover, the Cmax in series [12] worked out at 294 ng/mL. The Tmax in series [8] worked out at 48 min. Moreover, in series [9], the bioavailability was determined as 5%.
For `Cn1c2c(c(=O)n1Cc1ccccc1)[C@H]1CC[C@]2(C)C1(C)C`, in series [10], the pIC50 is 7.11.
Still for that read-out and setting: the same measure for `CCn1c2c(c(=O)n1-c1ccccc1)[C@H]1CC[C@]2(C)C1(C)C`: 7.74; for `CC(C)n1c2c(c(=O)n1-c1ccccc1F)[C@H]1CC[C@]2(C)C1(C)C`: 7.66; for `CC1(C)[C@@H]2CC[C@@]1(C)c1c2c(=O)n(-c2ccc(F)cc2F)n1CCc1ccccc1`: 7.74.
For `COc1cccc(-n2c(=O)c3c(n2C)[C@]2(C)CC[C@H]3C2(C)C)c1`, in series [10], the pIC50 is 7.39.
In the case of `CC1(C)[C@@H]2CC[C@@]1(C)c1c2c(=O)n(-c2ccccc2)n1Cc1ccccc1`, the solubility kinetic in series [1] turned out to be 171 µg/mL (≈ 477 µM). Besides, in [2], the Papp stood at 8.8 ×10⁻⁶ cm/s. For the same compound, the microsomal CLint at 1 µM in [3] is 645 µL/min/mg. For the same compound, the clearance in series [4] came to 57.5 mL/min/kg. The half-life in series [5] is 54 min. The Vd in series [6] was found to be 2.3 L/kg. In series [12], the Cmax came out at 648 ng/mL. Further, the Tmax in series [8] stood at 192 min. Moreover, the bioavailability in series [9] amounted to 29%. Further, the pIC50 in series [10] is 7.80.
Regarding `Cn1c2c(c(=O)n1-c1cccc(I)c1)[C@H]1CC[C@]2(C)C1(C)C`, the pIC50 in [10] is 8.40.
Same read-out and setting: under `Cc1ccccc1-c1cccc(Cn2c(=O)c3c(n2C)[C@]2(C)CC[C@H]3C2(C)C)c1` stands 7.68.
